Data on nine compounds can be found in patent publication US20050112551A1, “Dual assay for evaluating activity and cytotoxicity of compounds in the same population of cells” (AGOURON PHARMACEUTICALS, INC., priority 2003, published 2005).

Series [1] concerns HIV-1 RF infection of CEM-SS cells. As to the kind of experiment: HIV-1 RF cell protection assay (XTT dye reduction), antiviral activity. It counts as cell-based. The conditions noted are these: for EC50: read-out: HIV-1 RF Cell Protection Assay EC50; for HIV-1 RF Cell Protection Assay TI (therapeutic index, CC50/EC50): CC50 divided by EC50, cell protection assay.
For series [2], the system named is VSV/HIVLuc infection of HeLa HRLuc cells. The experiment in a line: microbe, parasite or virus in culture. The conditions noted are these: Vesicular stomatitis virus, 72 h, read-out: Dual Reporter Assay EC50. Background: Reporter assays use an easily measured gene product as a stand-in for the process of interest.
Series [3] can be described thus: HIV-1 RF cell protection assay (XTT dye reduction), cytotoxicity in uninfected cells. It counts as cell-based. The conditions noted are these: human. How it is done:
(§1) The antiviral activities of compounds were also evaluated in cell protection assays by the XTT dye reduction method. CEM-SS subject cells were infected with HIV-1 RF virus at an moi of 0.025 to 0.819 or mock infected with medium only and added at 2×10^4 cells per well into 96-well plates containing half-log dilutions of test compounds. Six days later, 50 μl of XTT (1 mg/ml XTT tetrazolium, […] phenazine methosulfate) was added to the wells and the plate was reincubated for four hours. Viability, as determined by the amount of XTT formazan produced, was quantified spectrophotometrically by absorbance at 450 nm.
(§2) Data from cell protection assays were expressed as the percent of formazan produced in compound-treated cells compared to formazan produced in wells of uninfected, compound-free cells.
(In general: Tetrazolium dyes change colour on reduction, which living cells bring about.)

A short description of the next series: in vitro. The note with it: human.
The subject of another series is HeLa HRLuc cells. The note with it: read-out: Dual Reporter Assay CC50; Renilla luciferase reporter in infected HeLa HRLuc cells, ~72 hours; mean of 2 to 3 experiments.
The next series deals with CEM-SS cells. As to the kind of experiment: HIV-1 RF cell protection assay (XTT dye reduction), cytotoxicity in uninfected cells. The series is classed as cell-based. The conditions noted are these: XTT dye reduction, uninfected CEM-SS cells, six days; mean of 2 to 3 experiments. How it is done:
as §1, §2

Series [4] concerns VSV/HIVLuc infection of HeLa HRLuc cells.
[5] abbreviates: uninfected (mock-infected) CEM-SS cells, XTT dye reduction, uninfected CEM-SS cells, six days, mean of 2 to 3 experiments, read-out: HIV-1 RF Cell Protection Assay CC50.
[6] abbreviates: Human immunodeficiency virus 1, 144 h, XTT dye reduction six days after infection of CEM-SS cells with HIV-1 RF, mean of 2 to 3 experiments.
[7] abbreviates: XTT dye reduction, uninfected CEM-SS cells, six days, mean of 2 to 3 experiments, read-out: HIV-1 RF Cell Protection Assay CC50.

For orientation: EC50 means the concentration at which the effect is half-maximal.

Each structure is given as a SMILES string. Where two headings read alike, the source gives them in different places.

As for `O=c1[nH]cnc2c1ncn2[C@H]1CC[C@@H](CO)O1` [ddl, didanosine], the EC50 stood at 12.9 µM in series [1] (Human immunodeficiency virus 1, CEM-SS, 144 h) and 0.59 µM in series [2]. Further, the CC50 at 6 days in series [3] (setting [5]) is over 32 µM. In “in vitro”, this compound had a CC50 of over 32 µM.

In the case of `O=C(O)C(=O)CC(=O)c1cccn1Cc1ccc(F)cc1` [Compound L-731988], the “HIV-1 RF Cell Protection Assay TI (therapeutic index, CC50/EC50)” value in series [1] amounted to 55.6. Moreover, the EC50 in series [1] (XTT dye reduction six days after infection of CEM-SS cells with HIV-1 RF, mean of 2 to 3 experiments) is 4.5 µM; in series [4] (read-out: Dual Reporter Assay EC50), 1.8 µM. The CC50 turned out to be 166 µM with HeLa HRLuc cells and 250 µM in the series with CEM-SS cells. Also, the “Dual Reporter Assay TI (therapeutic index, CC50/EC50)” value in series [4] came to 92.2.

Turning to `Nc1ccn([C@@H]2CS[C@H](CO)O2)c(=O)n1` [Compound 3TC, lamivudine], the “HIV-1 RF Cell Protection Assay TI (therapeutic index, CC50/EC50)” value in series [1] was >15,384. Further, the EC50 was 0.065 µM in series [1] (setting [6]) and 0.14 µM in series [2]. For the same compound, the CC50 at 6 days in series [3] was over 1000 µM. Also, in series [4], the “Dual Reporter Assay TI (therapeutic index, CC50/EC50)” value was over 229. Moreover, in the series “in vitro”, the CC50 is over 32 µM.

As to `CC(C)Nc1cccnc1N1CCN(C(=O)c2cc3cc(NS(C)(=O)=O)ccc3[nH]2)CC1` [DLV, delavirdine], the “HIV-1 RF Cell Protection Assay TI (therapeutic index, CC50/EC50)” value in series [1] was 6,961. Also, the EC50 was 0.013 µM in series [1] (setting [6]) and 0.02 µM in series [2]. Moreover, the CC50 at 6 days in series [3] (setting [7]) is 90.5 µM. In series [4], the “Dual Reporter Assay TI (therapeutic index, CC50/EC50)” value is over 5000. Besides, in the series “in vitro”, the CC50 was over 100 µM.

For `CC(C)c1nc(COC(N)=O)n(Cc2ccncc2)c1Sc1cc(Cl)cc(Cl)c1` [CPV, Capravirine], the “HIV-1 RF Cell Protection Assay TI (therapeutic index, CC50/EC50)” value in series [1] is 47,214. The EC50 came out at 0.0014 µM in series [1] (setting [6]) and 0.0015 µM in series [2]. Moreover, the CC50 at 6 days in series [3] (setting [7]) worked out at 66.1 µM. The “Dual Reporter Assay TI (therapeutic index, CC50/EC50)” value in series [4] was 24,266. This compound showed a CC50 in “in vitro” of 36.4 µM.

With `O=C1Nc2ccc(Cl)cc2[C@@](C#CC2CC2)(C(F)(F)F)O1` [EFV, efavirenz], the “HIV-1 RF Cell Protection Assay TI (therapeutic index, CC50/EC50)” value in series [1] was 38,266. The EC50 in series [1] (setting [6]) was determined as 0.0015 µM; in series [2], 0.0004 µM. Moreover, the CC50 at 6 days in series [3] (setting [7]) came out at 57.4 µM. Moreover, in series [4], the “Dual Reporter Assay TI (therapeutic index, CC50/EC50)” value is 179,250. Moreover, the CC50 in “in vitro” was determined as 71.7 µM.

As to `Cc1cn([C@H]2C=C[C@@H](CO)O2)c(=O)[nH]c1=O` [d4T, stavudine], the “HIV-1 RF Cell Protection Assay TI (therapeutic index, CC50/EC50)” value in series [1] is on record as over 64. For the same compound, the values for the EC50 in series [1] (setting [6]) and in series [2] were 0.51 µM and 0.27 µM, respectively. Further, the CC50 at 6 days in series [3] (setting [7]) was over 32 µM. Further, the “Dual Reporter Assay TI (therapeutic index, CC50/EC50)” value in series [4] is given as over 119. Moreover, the CC50 in the series “in vitro” is over 32 µM.

Consider `Cc1cn([C@H]2C[C@H](N=[N+]=[N-])[C@@H](CO)O2)c(=O)[nH]c1=O` [AZT, 3′-Azido-3′-deoxythymidine], for which, in series [1], the “HIV-1 RF Cell Protection Assay TI (therapeutic index, CC50/EC50)” value was >40,000. Further, the EC50 in series [1] (setting [6]) was 0.008 µM; in series [2] it was 0.029 µM. Further, the CC50 at 6 days in series [3] (setting [5]) was over 320 µM. In addition, the “Dual Reporter Assay TI (therapeutic index, CC50/EC50)” value in series [4] is >11,034. Also, in the series “in vitro”, the CC50 was over 320 µM.

In the case of `Cc1ccnc2c1NC(=O)c1cccnc1N2C1CC1` [NVP, Nevirapine], the “HIV-1 RF Cell Protection Assay TI (therapeutic index, CC50/EC50)” value in series [1] was >30,303. In addition, the EC50 in series [1] (setting [6]) was 0.033 µM; in series [2], 0.031 µM. Moreover, the CC50 at 6 days in series [3] (setting [7]) was over 1000 µM. The “Dual Reporter Assay TI (therapeutic index, CC50/EC50)” value in series [4] is over 1032. The compound further returned a CC50 in the series “in vitro” of over 32 µM.
